Assay [1] has as its target Glycogen synthase kinase-3 alpha (Homo sapiens) (UniProt P49840). Put plainly: Inhibition of GSK3-alpha (unknown origin) at 0.164 uM relative to control.
Assay [2] addresses Homeodomain-interacting protein kinase 4 (Homo sapiens) (UniProt Q8NE63). The experiment in a line: Inhibition of HIPK4 (unknown origin) at 0.164 uM relative to control.
For assay [3], the target named is Insulin receptor (Homo sapiens) (UniProt P06213). Put plainly: Inhibition of INSR (unknown origin) at 0.164 uM relative to control.
The target of assay [4] is Dual specificity tyrosine-phosphorylation-regulated kinase 3 (Homo sapiens) (UniProt O43781). Put plainly: Inhibition of DYRK3 (unknown origin) at 0.164 uM relative to control.
Assay [5] addresses Death-associated protein kinase 3 (Homo sapiens) (UniProt O43293). Put plainly: Inhibition of ZIPK (unknown origin) at 0.164 uM relative to control.
Assay [6] concerns the target NUAK family SNF1-like kinase 1 (Homo sapiens) (UniProt O60285). The experiment in a line: Inhibition of NuaK1 (unknown origin) at 0.164 uM relative to control.
Assay [7] concerns the target Aurora kinase A (Homo sapiens) (UniProt O14965). The experiment in a line: Inhibition of AurA (unknown origin) at 0.164 uM relative to control.
The target in assay [8] is Inhibitor of nuclear factor kappa-B kinase subunit beta (Homo sapiens) (UniProt O14920). The experiment in a line: Inhibition of IKK-beta (unknown origin) at 0.164 uM relative to control.
Assay [9] deals with Protein kinase C theta type (Homo sapiens) (UniProt Q04759). Put plainly: Inhibition of PKC-theta (unknown origin) at 0.164 uM relative to control.
Assay [10] has as its target Protein kinase C eta type (Homo sapiens) (UniProt P24723). The experiment in a line: Inhibition of PKC-eta (unknown origin) at 0.164 uM relative to control.
The target of assay [11] is Dual specificity tyrosine-phosphorylation-regulated kinase 1B (Homo sapiens) (UniProt Q9Y463). Put plainly: Inhibition of DYRK1B (unknown origin) at 0.164 uM relative to control.
The target of assay [12] is RAC-alpha serine/threonine-protein kinase (Homo sapiens) (UniProt P31749). The experiment in a line: Inhibition of AKT1 (unknown origin) at 0.19 uM relative to control.
The target of assay [13] is Fibroblast growth factor receptor 4 (Homo sapiens) (UniProt P22455). The experiment in a line: Inhibition of FGFR4 (unknown origin) at 0.19 uM relative to control.
Assay [14] concerns the target Serine/threonine-protein kinase Nek1 (Homo sapiens) (UniProt Q96PY6). Put plainly: Inhibition of NEK1 (unknown origin) at 0.19 uM relative to control.
Assay [15] concerns the target Serine/threonine-protein kinase Nek2 (Homo sapiens) (UniProt P51955). The experiment in a line: Inhibition of NEK2 (unknown origin) at 0.19 uM relative to control.
Assay [16] has as its target RAF proto-oncogene serine/threonine-protein kinase (Homo sapiens) (UniProt P04049). Put plainly: Inhibition of c-Raf (unknown origin) at 0.19 uM relative to control.
The target of assay [17] is Insulin-like growth factor 1 receptor (Homo sapiens) (UniProt P08069). The experiment in a line: Inhibition of IGF1R (unknown origin) at 0.19 uM relative to control.
The target of assay [18] is MAP kinase-interacting serine/threonine-protein kinase 2 (Homo sapiens) (UniProt Q9HBH9). Put plainly: Inhibition of MNK2 (unknown origin) at 0.19 uM relative to control.
In assay [19] the test system is Tyrosine-protein kinase ABL1 (Homo sapiens), P00519 [E255K]. Put plainly: Inhibition of ABL1 E255K mutant (unknown origin) at 0.19 uM relative to control.
The target in assay [20] is T1, MAP kinase-activated protein kinase 5 (Homo sapiens) (UniProt Q8IW41).
T1 sequence (whole entry): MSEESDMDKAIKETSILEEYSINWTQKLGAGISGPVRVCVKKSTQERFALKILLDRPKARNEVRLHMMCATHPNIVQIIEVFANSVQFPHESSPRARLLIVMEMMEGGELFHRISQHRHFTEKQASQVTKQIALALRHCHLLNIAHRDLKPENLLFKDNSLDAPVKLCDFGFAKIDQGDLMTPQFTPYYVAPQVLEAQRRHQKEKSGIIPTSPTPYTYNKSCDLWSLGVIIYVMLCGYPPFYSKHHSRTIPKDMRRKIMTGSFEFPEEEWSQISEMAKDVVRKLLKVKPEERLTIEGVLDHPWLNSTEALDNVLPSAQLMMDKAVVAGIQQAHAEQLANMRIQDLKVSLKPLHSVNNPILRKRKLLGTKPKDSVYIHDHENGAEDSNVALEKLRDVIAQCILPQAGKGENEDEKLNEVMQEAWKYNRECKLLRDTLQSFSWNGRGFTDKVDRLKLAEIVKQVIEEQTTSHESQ
The experiment in a line: Inhibition of PRAK (unknown origin) at 0.19 uM relative to control.

For assay [21], the target named is T2, cGMP-dependent protein kinase 1 (Homo sapiens) (UniProt Q13976).
T2 sequence (whole entry): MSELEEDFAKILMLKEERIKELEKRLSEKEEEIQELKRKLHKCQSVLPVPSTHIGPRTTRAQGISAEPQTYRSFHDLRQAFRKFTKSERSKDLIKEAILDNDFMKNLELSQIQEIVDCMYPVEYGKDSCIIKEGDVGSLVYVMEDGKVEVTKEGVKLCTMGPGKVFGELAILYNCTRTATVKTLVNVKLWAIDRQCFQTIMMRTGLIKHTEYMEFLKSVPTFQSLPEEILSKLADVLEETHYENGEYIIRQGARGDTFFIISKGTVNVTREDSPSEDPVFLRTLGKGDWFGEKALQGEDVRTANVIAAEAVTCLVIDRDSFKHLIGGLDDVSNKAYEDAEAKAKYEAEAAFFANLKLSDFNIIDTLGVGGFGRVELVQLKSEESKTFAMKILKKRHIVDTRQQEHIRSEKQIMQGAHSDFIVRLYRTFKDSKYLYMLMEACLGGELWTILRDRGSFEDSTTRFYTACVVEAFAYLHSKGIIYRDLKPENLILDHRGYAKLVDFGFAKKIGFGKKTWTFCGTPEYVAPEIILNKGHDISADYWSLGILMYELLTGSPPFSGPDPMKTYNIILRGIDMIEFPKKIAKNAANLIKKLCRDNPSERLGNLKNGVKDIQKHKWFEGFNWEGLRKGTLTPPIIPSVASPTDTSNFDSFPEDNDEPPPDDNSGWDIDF
The experiment in a line: Inhibition of PKG1-beta (unknown origin) at 0.19 uM relative to control.

Assay [22] concerns the target Interleukin-1 receptor-associated kinase 4 (Homo sapiens) (UniProt Q9NWZ3). The experiment in a line: Inhibition of IRAK4 (unknown origin) at 0.19 uM relative to control.
The target of assay [23] is Ephrin type-A receptor 8 (Homo sapiens) (UniProt P29322). Put plainly: Inhibition of EPHA8 (unknown origin) at 0.19 uM relative to control.
In assay [24] the target is Leukocyte tyrosine kinase receptor (Homo sapiens) (UniProt P29376). Put plainly: Inhibition of LTK (unknown origin) at 0.19 uM relative to control.
Assay [25] concerns the target Ephrin type-B receptor 3 (Homo sapiens) (UniProt P54753). The experiment in a line: Inhibition of EPHB3 (unknown origin) at 0.19 uM relative to control.

Drawing on ChEMBL document CHEMBL4118098, “Discovery of DS28120313 as a potent orally active hepcidin production inhibitor: Design and optimization of novel 4,6-disubstituted indazole derivatives” (Bioorg Med Chem Lett, 2017), this text covers inhibition for 2 compounds.

Sequence of Death-associated protein kinase 3 (Homo sapiens) (O43293 whole entry, looked up): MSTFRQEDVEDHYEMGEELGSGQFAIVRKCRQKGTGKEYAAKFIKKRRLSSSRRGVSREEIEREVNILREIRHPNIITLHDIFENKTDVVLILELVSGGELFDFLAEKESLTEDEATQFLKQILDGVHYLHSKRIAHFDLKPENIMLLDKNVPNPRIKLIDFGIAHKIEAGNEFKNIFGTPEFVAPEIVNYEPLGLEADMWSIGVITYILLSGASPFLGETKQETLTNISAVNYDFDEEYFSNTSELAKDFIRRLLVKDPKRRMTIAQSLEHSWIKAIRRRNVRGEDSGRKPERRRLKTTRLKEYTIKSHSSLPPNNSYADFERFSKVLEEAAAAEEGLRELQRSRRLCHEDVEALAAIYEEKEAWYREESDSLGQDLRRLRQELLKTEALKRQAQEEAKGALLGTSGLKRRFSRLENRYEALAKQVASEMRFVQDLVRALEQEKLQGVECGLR
Sequence of Protein kinase C theta type (Homo sapiens) (Q04759 whole entry, looked up): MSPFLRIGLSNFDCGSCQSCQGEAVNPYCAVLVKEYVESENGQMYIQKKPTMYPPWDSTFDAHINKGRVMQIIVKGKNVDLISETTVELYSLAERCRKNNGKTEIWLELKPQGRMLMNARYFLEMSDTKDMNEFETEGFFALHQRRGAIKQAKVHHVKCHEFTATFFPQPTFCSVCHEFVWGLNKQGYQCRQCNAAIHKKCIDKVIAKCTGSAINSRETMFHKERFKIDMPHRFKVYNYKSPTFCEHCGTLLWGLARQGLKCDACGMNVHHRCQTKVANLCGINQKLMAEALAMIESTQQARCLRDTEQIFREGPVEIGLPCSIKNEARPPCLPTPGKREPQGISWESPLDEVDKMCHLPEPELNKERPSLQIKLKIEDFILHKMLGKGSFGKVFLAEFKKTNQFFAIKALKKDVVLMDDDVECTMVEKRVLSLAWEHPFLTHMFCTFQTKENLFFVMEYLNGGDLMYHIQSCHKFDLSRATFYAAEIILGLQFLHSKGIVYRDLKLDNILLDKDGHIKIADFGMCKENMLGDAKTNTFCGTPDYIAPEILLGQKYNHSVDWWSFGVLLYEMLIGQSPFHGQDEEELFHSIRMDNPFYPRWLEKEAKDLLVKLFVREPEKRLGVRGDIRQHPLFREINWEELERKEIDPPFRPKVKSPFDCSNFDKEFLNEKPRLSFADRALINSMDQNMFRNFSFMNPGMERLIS
Sequence of Glycogen synthase kinase-3 alpha (Homo sapiens) (P49840 2-483 limits assumed): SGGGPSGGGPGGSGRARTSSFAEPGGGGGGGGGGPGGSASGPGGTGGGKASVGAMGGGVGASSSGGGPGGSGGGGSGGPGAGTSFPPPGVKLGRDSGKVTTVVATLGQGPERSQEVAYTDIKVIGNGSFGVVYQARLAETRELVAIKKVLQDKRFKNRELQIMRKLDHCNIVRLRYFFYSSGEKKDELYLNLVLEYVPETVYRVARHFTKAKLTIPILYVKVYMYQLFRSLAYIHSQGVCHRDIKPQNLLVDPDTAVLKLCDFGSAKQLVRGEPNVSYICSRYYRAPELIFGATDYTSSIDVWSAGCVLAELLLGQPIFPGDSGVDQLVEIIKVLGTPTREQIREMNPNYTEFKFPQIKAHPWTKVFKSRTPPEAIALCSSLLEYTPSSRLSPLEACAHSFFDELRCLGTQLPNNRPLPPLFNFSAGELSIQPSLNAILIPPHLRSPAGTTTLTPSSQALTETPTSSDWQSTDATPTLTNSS
Sequence of RAF proto-oncogene serine/threonine-protein kinase (Homo sapiens) (P04049 whole entry): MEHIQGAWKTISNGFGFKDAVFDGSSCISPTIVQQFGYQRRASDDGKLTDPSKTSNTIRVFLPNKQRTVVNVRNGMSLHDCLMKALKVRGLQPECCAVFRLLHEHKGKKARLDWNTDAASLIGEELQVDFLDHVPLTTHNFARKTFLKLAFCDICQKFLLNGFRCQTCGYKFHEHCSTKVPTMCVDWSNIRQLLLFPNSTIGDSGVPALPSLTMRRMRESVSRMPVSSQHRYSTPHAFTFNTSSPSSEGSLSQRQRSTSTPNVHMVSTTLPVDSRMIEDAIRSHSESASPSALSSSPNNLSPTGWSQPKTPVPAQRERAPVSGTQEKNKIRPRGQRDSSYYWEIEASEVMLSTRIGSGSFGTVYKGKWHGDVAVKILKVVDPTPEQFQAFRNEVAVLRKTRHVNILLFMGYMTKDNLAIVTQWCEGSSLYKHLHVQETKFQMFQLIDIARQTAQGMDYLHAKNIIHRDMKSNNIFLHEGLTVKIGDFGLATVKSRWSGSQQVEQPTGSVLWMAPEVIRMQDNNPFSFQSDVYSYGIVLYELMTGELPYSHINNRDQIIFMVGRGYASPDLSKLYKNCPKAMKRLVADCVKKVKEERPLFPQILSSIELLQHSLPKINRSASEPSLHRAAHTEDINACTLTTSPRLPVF
Sequence of Fibroblast growth factor receptor 4 (Homo sapiens) (P22455 22-802 limits assumed): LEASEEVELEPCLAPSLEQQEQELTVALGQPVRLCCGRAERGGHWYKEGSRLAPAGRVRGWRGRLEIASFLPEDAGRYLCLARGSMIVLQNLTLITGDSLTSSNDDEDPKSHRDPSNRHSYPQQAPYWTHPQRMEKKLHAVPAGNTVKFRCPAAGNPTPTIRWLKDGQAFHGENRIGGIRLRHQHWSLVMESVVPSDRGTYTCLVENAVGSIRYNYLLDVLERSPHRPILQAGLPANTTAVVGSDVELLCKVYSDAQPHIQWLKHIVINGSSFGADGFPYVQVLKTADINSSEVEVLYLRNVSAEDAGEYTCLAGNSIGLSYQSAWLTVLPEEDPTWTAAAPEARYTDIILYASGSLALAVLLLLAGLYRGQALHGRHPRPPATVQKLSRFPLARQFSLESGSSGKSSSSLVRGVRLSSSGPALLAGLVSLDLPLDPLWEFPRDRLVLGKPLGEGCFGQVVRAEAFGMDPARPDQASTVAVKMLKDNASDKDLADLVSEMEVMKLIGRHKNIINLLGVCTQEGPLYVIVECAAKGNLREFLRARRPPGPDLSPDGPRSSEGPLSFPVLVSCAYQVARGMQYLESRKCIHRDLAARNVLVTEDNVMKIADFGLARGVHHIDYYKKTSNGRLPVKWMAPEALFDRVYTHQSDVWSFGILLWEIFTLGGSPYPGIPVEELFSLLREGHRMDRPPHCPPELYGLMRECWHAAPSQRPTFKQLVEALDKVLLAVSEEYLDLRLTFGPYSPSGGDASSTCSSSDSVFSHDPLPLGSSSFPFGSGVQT
Sequence of Leukocyte tyrosine kinase receptor (Homo sapiens) (P29376 whole entry): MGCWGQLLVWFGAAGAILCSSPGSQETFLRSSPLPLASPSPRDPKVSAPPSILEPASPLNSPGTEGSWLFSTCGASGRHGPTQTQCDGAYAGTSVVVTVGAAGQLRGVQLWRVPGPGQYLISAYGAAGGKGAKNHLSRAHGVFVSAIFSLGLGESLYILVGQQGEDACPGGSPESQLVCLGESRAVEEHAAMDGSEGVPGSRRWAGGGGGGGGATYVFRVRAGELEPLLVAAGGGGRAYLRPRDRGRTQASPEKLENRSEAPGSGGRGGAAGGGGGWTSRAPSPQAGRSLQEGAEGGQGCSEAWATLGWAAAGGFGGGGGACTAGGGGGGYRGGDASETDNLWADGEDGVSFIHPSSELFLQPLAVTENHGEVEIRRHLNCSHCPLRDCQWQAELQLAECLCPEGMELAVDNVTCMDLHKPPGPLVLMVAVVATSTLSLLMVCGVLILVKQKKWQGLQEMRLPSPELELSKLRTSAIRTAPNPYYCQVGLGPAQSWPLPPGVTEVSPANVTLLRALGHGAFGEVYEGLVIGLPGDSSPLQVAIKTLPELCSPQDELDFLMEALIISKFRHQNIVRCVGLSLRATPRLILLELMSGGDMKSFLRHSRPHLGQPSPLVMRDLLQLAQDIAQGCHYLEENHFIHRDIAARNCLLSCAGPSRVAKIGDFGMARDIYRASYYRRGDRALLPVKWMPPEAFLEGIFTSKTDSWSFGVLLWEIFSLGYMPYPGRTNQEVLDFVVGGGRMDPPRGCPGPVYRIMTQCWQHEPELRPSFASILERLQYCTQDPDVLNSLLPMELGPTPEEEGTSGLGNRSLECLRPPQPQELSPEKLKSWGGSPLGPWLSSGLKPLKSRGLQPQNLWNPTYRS
Sequence of Protein kinase C eta type (Homo sapiens) (P24723 whole entry): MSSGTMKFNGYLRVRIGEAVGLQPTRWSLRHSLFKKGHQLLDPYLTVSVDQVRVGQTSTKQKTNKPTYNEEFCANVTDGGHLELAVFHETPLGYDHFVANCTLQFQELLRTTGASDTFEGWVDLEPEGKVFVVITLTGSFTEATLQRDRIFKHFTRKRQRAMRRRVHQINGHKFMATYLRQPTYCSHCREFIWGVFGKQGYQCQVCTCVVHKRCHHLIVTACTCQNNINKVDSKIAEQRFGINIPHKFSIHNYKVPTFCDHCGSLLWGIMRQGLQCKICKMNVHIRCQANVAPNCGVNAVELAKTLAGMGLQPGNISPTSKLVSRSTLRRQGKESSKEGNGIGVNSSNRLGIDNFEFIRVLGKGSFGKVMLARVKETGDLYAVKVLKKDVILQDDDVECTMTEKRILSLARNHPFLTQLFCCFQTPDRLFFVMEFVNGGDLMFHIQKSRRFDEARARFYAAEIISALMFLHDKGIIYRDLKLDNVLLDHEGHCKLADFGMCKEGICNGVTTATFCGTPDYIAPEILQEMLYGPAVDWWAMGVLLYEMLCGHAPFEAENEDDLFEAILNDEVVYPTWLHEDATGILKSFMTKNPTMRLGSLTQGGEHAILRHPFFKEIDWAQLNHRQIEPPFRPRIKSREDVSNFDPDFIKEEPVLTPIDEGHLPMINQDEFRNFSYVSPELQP
Sequence of Aurora kinase A (Homo sapiens) (O14965 whole entry): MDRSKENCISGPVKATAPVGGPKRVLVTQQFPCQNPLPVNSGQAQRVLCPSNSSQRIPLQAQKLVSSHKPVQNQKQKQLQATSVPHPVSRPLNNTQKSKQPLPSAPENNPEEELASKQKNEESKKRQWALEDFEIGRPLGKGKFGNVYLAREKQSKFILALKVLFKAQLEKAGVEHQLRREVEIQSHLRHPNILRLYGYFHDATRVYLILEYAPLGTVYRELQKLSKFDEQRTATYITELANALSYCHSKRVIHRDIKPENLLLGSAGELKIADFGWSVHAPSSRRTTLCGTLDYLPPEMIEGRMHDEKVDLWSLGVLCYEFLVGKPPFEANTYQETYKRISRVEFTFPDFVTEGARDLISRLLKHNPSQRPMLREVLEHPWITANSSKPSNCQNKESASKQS

Broadly, the inhibition is the relative decrease from the control value, in per cent. As for `COC(=O)Nc1cc(-c2c(C3CC3)n[nH]c2C)cc2[nH]ncc12`, the inhibition in assay [1] is 1%; in assay [2], -4%; in assay [3], -6%; in [4], 5.3%; in assay [5] it was -1%; in assay [6], 0.7%. For the same compound, the inhibition in assay [7] is 6.7%; in assay [8], -3.7%; in assay [9], 7%; in [10], -4.7%; in [11], 0.3%.
Turning to `Cc1[nH]nc(C2CC2)c1-c1ccc2c(-c3ccc(N4CCN(C)CC4)nc3)n[nH]c2c1`, the inhibition in assay [12] stood at 1.7%; in assay [13] it was 5.3%; in [14], 1.3%; in assay [15], 12%; in [16], 4.7%; in assay [17], 5%. The inhibition is 0% in assay [18]; 64.7% in assay [19]; 1.3% in assay [20]; -3.3% in [21]; 4.3% in assay [22]; 9.3% in assay [23]. Further, the inhibition in assay [24] is 0.3%; in assay [25], 1%.
